The text below walks through data of patent publication US7220768B2, “Isoxazole-containing thiourea inhibitors useful for treatment of varicella zoster virus” (Wyeth Holdings Corp., priority 2003, dated 2007).

Experiment [1] in a line: MTS assay (Table 2). The experiment is classed as cell-based. (In general: Formazan colour is commonly taken as a measure of viable cells.)
Experiment [2] concerns HSV. Briefly: HSV Antiviral (ELISA) Assay. The experiment is classed as cell-based, herpes simplex virus. The following applies: Vero cells. The method, then: HSV Antiviral (ELISA) Assay. Vero cells (ATCC #CCL-81) are plated on 96-well tissue culture plates at 3.5×10^4 cells per 100 μl tissue culture DMEM (Dulbecco's modified Eagle media) supplemented with 2% fetal bovine serum (FBS) in each well. After overnight incubation, inhibition was determined by comparing the fluorescence obtained in absence of compound to that obtained in the presence of compound.
A general note: ELISA stands for enzyme-linked immunosorbent assay.

The subject of experiment [3] is VZV. The experiment can be described thus: VZV antiviral assay (Table 2). To be noted: for IC50: Human alphaherpesvirus 3. It is filed as cell-based, varicella zoster virus.
The test system of experiment [4] is RSV. Briefly: RSV antiviral assay (Table 2). The experiment is classed as cell-based. To be noted: for IC50: human respiratory syncytial virus.
For experiment [5], the system named is HCMV. The experiment can be described thus: Human cytomegalovirus yield / microtiter plate assay. The experiment is classed as cell-based. To be noted: human foreskin fibroblasts; for IC50: Human betaherpesvirus 5, Fibroblast. The method, then: Yield Assay. Monolayer cultures of human foreskin fibroblasts are infected with HCMV wild-type virus, typically at a multiplicity of infection equal to 0.2, in the presence of inhibitors compound (varying concentrations). At three days post-infection, total virus produced in these cultures (i.e. virus yield) is assessed by harvesting and titering the virus in 12-well plates of cultured human foreskin fibroblasts (done in the absence of inhibitors). Plaques are quantified at 2 weeks post-infection. An inhibitor of HCMV is identified by the reduction in titer of virus yield in the presence, compared to the titer in the absence of compound. In this assay, the relative anti-HCMV activity of an inhibitor is typically determined by calculating the IC50 or IC90 value, that is, the amount of compound required to reduce the virus yield by 50% or 90%, respectively. Table 2 describes IC50 data for compounds tested against HCMV.
Microtiter Plate Assay. Ninety-six well plate cultures of human foreskin fibroblasts are infected in the presence of inhibitor compound with a HCMV recombinant mutant virus whose genome contains the prokaryotic beta-glucuronidase gene (Jefferson, R. A., S. M. Burgess, and D. Hirsh. 1986. Beta-glucuronidase from Escherichia coli as a gene fusion marker. Proc. Natl. Acad. Sci. USA 83:8447–8451) whose expression is controlled by a viral promoter. An example of such a virus is RV145 [T. R. Jones; V. P. Muzithras, and Y. Gluzman. 1991, Replacement mutagenesis of the human cytomegalovirus genome: US10 and US11 gene products are nonessential, J. Virol. 65:5860–5872]. Since it is under the control of a viral promoter, beta-glucuronidase expression is an indirect indicator of growth and replication of HCMV in this assay. At 96 hours post-infection, the infected cell lysates are prepared (using 50 mM sodium phosphate [pH 7.0] containing 0.1% Triton X-100 and 0.1% sarkosyl) and assayed for beta-glucuronidase activity using a substrate for the enzyme which when cleaved yields either a product which can be measured colorimetrically in a spectrophotometer or fluorescently in a microfluorimeter. Examples of such substrates are p-nitrophenyl-beta-D-glucuronide and methylumbelliferylglucuronide, respectively. The presence of an antiviral compound is indicated by the reduced expression of the HCMV genome resident beta-glucuronidase gene, compared to the absence of inhibitor. […] Data from this assay generated using varying amounts of inhibitor compound is also used to estimate the IC50 of an inhibitor compound.

Molecules are shown by their SMILES. ≈ marks a conversion by molar mass, not a printed value.

Take `CC(NC(=S)Nc1ccc(-c2nocc2CO)cc1)c1ccc(F)cc1` (stereo not shown) [Example 9, 1-[1-(4-Fluorophenyl)ethyl]-3-[4-(4-hydroxymethylisoxazol-3-yl)phenyl]thiourea]: the IC50 – broadly, the concentration that inhibits the measured activity by half – is > 15 µg/mL in experiment [1]; > 10 µg/mL in experiment [2]; 2 µg/mL (≈ 5.38 µM) in experiment [3]; 7.2 µg/mL (≈ 19.4 µM) in experiment [4]; 5.7 µg/mL (≈ 15.3 µM) in experiment [5].

On to `CC(NC(=S)Nc1ccc(-c2nocc2Cc2ccccc2)cc1)c1ccc(F)cc1` (stereo not shown) [Example 10, 1-[4-(4-Benzylisoxazol-3-yl)phenyl]-3-[1-(4-fluorophenyl)ethyl]thiourea], for which the IC50 in experiment [1] is > 15 µg/mL; in experiment [2] it was > 10 µg/mL; in experiment [3], 0.086 µg/mL (≈ 0.199 µM); in experiment [4], > 10 µg/mL; in experiment [5], 2.4 µg/mL (≈ 5.56 µM).

For `CC(NC(=S)Nc1ccc(-c2nocc2Cc2ccc(F)cc2)cc1)c1ccc(F)cc1` (stereo not shown) [Example 11, 1-{4-[4-(4-Fluorobenzyl)isoxazol-3-yl]phenyl}-3-[1-(4-fluorophenyl)ethyl]thiourea], the IC50 in experiment [1] is 1.9 µg/mL (≈ 4.23 µM); in experiment [2], 2.1 µg/mL (≈ 4.67 µM); in experiment [3], 0.16 µg/mL (≈ 0.356 µM); in experiment [4], 4.7 µg/mL (≈ 10.5 µM); in experiment [5], 1.8 µg/mL (≈ 4 µM).

`CC(NC(=S)Nc1ccc(-c2nocc2-c2ccccc2)cc1)c1ccc(F)cc1` (stereo not shown) [Example 12, 1-[1-(4-Fluoropheny)ethyl]-3-[4-(4-phenylisoxazol-3-yl)phenyl]thiourea]: the “IC50 MTS” value in experiment [1] is >15 µg/mL. Also, the “IC50 HSV” value in experiment [2] was >10 µg/mL. For the same compound, the “IC50 VZV” value in experiment [3] worked out at 0.37 µg/mL (≈ 0.886 µM). In addition, in experiment [4], the “IC50 RSV” value was >10 µg/mL. Further, in experiment [5], the “IC50 CMV” value was >10 µg/mL.

As to `CC(NC(=S)Nc1ccc(-c2nocc2C(C)(C)C)cc1)c1ccc(F)cc1` (stereo not shown) [Example 13, 1-[4-(4-tert-Butylisoxazol-3-yl)phenyl]-3-[1-(4-fluorophenyl)ethyl]thiourea], the IC50 was 1.5 µg/mL (≈ 3.77 µM) in experiment [1]; 2.3 µg/mL (≈ 5.79 µM) in experiment [2]; 0.23 µg/mL (≈ 0.579 µM) in experiment [3]; 2.1 µg/mL (≈ 5.28 µM) in experiment [4]; 1.3 µg/mL (≈ 3.27 µM) in experiment [5].

`CC(NC(=S)Nc1ccc(-c2nocc2-c2ccccc2F)cc1)c1ccc(F)cc1` (stereo not shown) [Example 14, 1-[1-(4-Fluorophenyl)ethyl]-3-{4-[4-(2-fluorophenyl)isoxazol-3-yl]phenyl}thiourea]: the IC50 in experiment [1] is > 15 µg/mL; in experiment [2], > 10 µg/mL; in experiment [3] it was 5.4 µg/mL (≈ 12.4 µM); in experiment [4], > 10 µg/mL; in experiment [5], > 10 µg/mL.

Turning to `CC(NC(=S)Nc1ccc(-c2conc2-c2cccnc2)cc1)c1ccc(F)cc1` (stereo not shown) [Example 15, N-[1-(4-Fluorophenyl)ethyl]-N′-{4-[3-(3-pyridinyl)-4-isoxazolyl]phenyl}thiourea], the IC50 in experiment [1] was 14 µg/mL (≈ 33.5 µM); in experiment [2] it was 3.1 µg/mL (≈ 7.41 µM); in experiment [3] it was 0.19 µg/mL (≈ 0.454 µM); in experiment [4], > 10 µg/mL; in experiment [5], > 10 µg/mL.

Turning to `CC(NC(=S)Nc1ccc(-c2conc2-c2ccnc3ccccc23)cc1)c1ccc(F)cc1` (stereo not shown) [Example 16, N-[1-(4-Fluorophenyl)ethyl]-N′-{4-[3-(4-quinolinyl)-4-isoxazolyl]phenyl}thiourea], the IC50 in experiment [1] stood at 6.5 µg/mL (≈ 13.9 µM); in experiment [2], 3.1 µg/mL (≈ 6.62 µM); in experiment [3], 0.08 µg/mL (≈ 0.171 µM); in experiment [4], 2.3 µg/mL (≈ 4.91 µM); in experiment [5] it was 0.8 µg/mL (≈ 1.71 µM).

For the compound `CC(NC(=S)Nc1ccc(-c2conc2-c2ccncc2)cc1)c1ccc(F)cc1` (stereo not shown) [Example 17, N-[1-(4-Fluorophenyl)ethyl]-N′-{4-[3-(4-pyridinyl)-4-isoxazolyl]phenyl}thiourea], the IC50 was 5.5 µg/mL (≈ 13.1 µM) in experiment [1]; 3.7 µg/mL (≈ 8.84 µM) in experiment [2]; 0.14 µg/mL (≈ 0.335 µM) in experiment [3]; 1.5 µg/mL (≈ 3.58 µM) in experiment [4]; 0.93 µg/mL (≈ 2.22 µM) in experiment [5].

On to `CC(NC(=S)Nc1ccc(-c2conc2-c2ccc(N)cc2)cc1)c1ccc(F)cc1` (stereo not shown) [Example 18, N-{4-[3-(4-Aminophenyl)-4-isoxazolyl]phenyl}-N′-[1-(4-fluorophenyl)ethyl]thiourea], for which the IC50 in experiment [1] was 13 µg/mL (≈ 30.1 µM); in experiment [2] it was > 10 µg/mL; in experiment [3], 0.05 µg/mL (≈ 0.116 µM); in experiment [4], > 10 µg/mL; in experiment [5] it was 2 µg/mL (≈ 4.62 µM).

As for `CC(NC(=S)Nc1ccc(-c2conc2-c2csnn2)cc1)c1ccc(F)cc1` (stereo not shown) [Example 19, N-[1-(4-Fluorophenyl)ethyl]-N′-{4-[3-(1,2,3-thiadiazol-4-yl)-4-isoxazolyl]phenyl}thiourea], the IC50 in experiment [1] was > 15 µg/mL; in experiment [2] it was > 10 µg/mL; in experiment [3], 0.13 µg/mL (≈ 0.306 µM); in experiment [4], > 10 µg/mL; in experiment [5] it was 0.9 µg/mL (≈ 2.12 µM).

For the compound `CC(NC(=S)Nc1ccc(-c2conc2-c2ccccn2)cc1)c1ccc(F)cc1` (stereo not shown) [Example 20, N-[1-(4-Fluorophenyl)ethyl]-N′-{4-[3-(2-pyridinyl)-4-isoxazolyl]phenyl}thiourea], the IC50 in experiment [1] was > 15 µg/mL; in experiment [2], > 10 µg/mL; in experiment [3] it was 0.18 µg/mL (≈ 0.43 µM); in experiment [4], > 10 µg/mL; in experiment [5] it was > 10 µg/mL.

`CC(NC(=S)Nc1ccc(-c2conc2-c2ccc(N(C)C)cc2)cc1)c1ccc(F)cc1` (stereo not shown) [Example 21, N-(4-{3-[4-(Dimethylamino)phenyl]-4-isoxazolyl}phenyl)-N′-[1-(4-fluorophenyl)ethyl]thiourea]: the IC50 was > 15 µg/mL in experiment [1]; > 10 µg/mL in experiment [2]; 0.34 µg/mL (≈ 0.738 µM) in experiment [3]; > 10 µg/mL in experiment [4]; 9.3 µg/mL (≈ 20.2 µM) in experiment [5].

Turning to `CC(NC(=S)Nc1ccc(-c2conc2-c2ccc(O)cc2)cc1)c1ccc(F)cc1` (stereo not shown) [Example 22, N-[1-(4-Fluorophenyl)ethyl]-N′-{4-[3-(4-hydroxyphenyl)-4-isoxazolyl]phenyl}thiourea], the IC50 in experiment [1] was > 15 µg/mL; in experiment [2], > 10 µg/mL; in experiment [3] it was 0.61 µg/mL (≈ 1.41 µM); in experiment [4], 9.9 µg/mL (≈ 22.8 µM); in experiment [5], 2.5 µg/mL (≈ 5.77 µM).

As for `CC(NC(=S)Nc1ccc(-c2conc2-c2ccccc2)cc1)c1ccc(F)cc1` (stereo not shown) [Example 23, N-[1-(4-Fluorophenyl)ethyl]-N′-[4-(3-phenyl-4-isoxazolyl)phenyl]thiourea], the IC50 was > 15 µg/mL in experiment [1]; > 10 µg/mL in experiment [2]; 0.89 µg/mL (≈ 2.13 µM) in experiment [3]; > 10 µg/mL in experiment [4]; > 10 µg/mL in experiment [5].

For the compound `CC(NC(=S)Nc1ccc(-c2conc2-c2ncc[nH]2)cc1)c1ccc(F)cc1` (stereo not shown) [Example 24, N-[1-(4-Fluorophenyl)ethyl]-N′-{4-[3-(1 H-imidazol-2-yl)-4-isoxazolyl]phenyl}thiourea], the IC50 in experiment [1] was > 15 µg/mL; in experiment [2], > 10 µg/mL; in experiment [3], 1 µg/mL (≈ 2.45 µM); in experiment [4], > 10 µg/mL; in experiment [5], > 10 µg/mL.

`CC(NC(=S)Nc1ccc(-c2conc2-c2ccccc2O)cc1)c1ccc(F)cc1` (stereo not shown) [Example 25, N-[1-(4-Fluorophenyl)ethyl]-N′-{4-[3-(2-hydroxyphenyl)-4-isoxazolyl]phenyl}thiourea]: the IC50 in experiment [1] is > 15 µg/mL; in experiment [2], > 10 µg/mL; in experiment [3] it was 1.9 µg/mL (≈ 4.38 µM); in experiment [4] it was > 10 µg/mL; in experiment [5], 7.9 µg/mL (≈ 18.2 µM).
